Measurements: patent US3958011A, “Compositions of tri-n-propylacetic acid and salts thereof and treatment of neurological disorders with such compositions” (priority 1972, dated 1976)
Read-outs that look alike come from different tables or passages of the source.

Key:
[1] = tested on: mice; experiment: Traction test (myorelaxant properties); format: in vivo, mice (OF 1); conditions: for Number of animals which have lost the traction reflex: groups of 10; for ED50: Mus musculus, ip, read-out: ED50, loss of traction reflex
Experimental: This test enables sense of balance as well as muscular tonus and strength to be evaulated.
The test is carried out on groups of 10 male mice of the OF 1 strain weighing about 25 g. It consists of suspending the mice by the front paws to a horizontally stretched wire. Note is first taken of the time required by a group of control animals to effect recovery i.e. to place at least one of their back paws on the wire.

[2] = Rota rod test (neurotoxicity); format: in vivo; conditions: mouse, ip, mice, intraperitoneal, 30 min after administration, read-out: NTD50 (neurotoxic dose 50) in the rota rod test
Experimental: The test used was that known as the rota rod test (BOISSIER-Therapie 1958, XIII, pp. 1074-1118). This test aims at enabling the animals' ability to coordinate their movements to be evaluated. It is carried out on batches of 10 mice each weighing about 25 g. The compound to be tested is administered by intraperitoneal route to the animals of each batch so that each batch receives a higher dose than that given to the preceding batch. Thirty minutes after administration, the mice are placed for two minutes on a wooden roller of 4.8 cm diameter which turns at the rate of 4 revolutions per minute. The roller has a rough surface to prevent the animals from slipping.
By this means, the neurotoxic dose 50 (NTD 50) can be determined, i.e. the dose of the compound with which one half of the animals can no longer stay on the roller during the period of time fixed as the reference period.
In order to obtain an activity index figure 30 minutes after administration the rota rod test described above was also performed using for comparison a known myorelaxant, namely mephenesin.

[3] = tested on: rats; experiment: Anoxic seizure induced by gallamine triiodoethylate (antianoxic properties); format: in vivo, rats (OFA); conditions: 2 millimols/kg
Description: The injection of a sufficient dose of a synthetic curariform substance such as gallamine triiodoethylate provokes in the rat paralysis of the diaphragm. The animal then dies by asphyxia.
Male rats of the OFA strain and weighing about 250 g. were first anesthetized with ether in order to enable tracheotomy to be performed and cortical electrodes to be inserted. Each rat was then maintained under conditions of artificial respiration by means of an appropriate apparatus and a paralysing dose of gallamine triiodoethylate was administered by intraperitoneal route to eliminate spontaneous breathing. The electrocorticogram, the electrocardiogram and the rectal temperature were registered. After a period of 30 minutes during which stabilization of the registrations was obtained the animal was treated with 2 millimols/kg of an oily solution of tri-n-propylacetic acid or an aqueous solution of one of its alkali metal salts. The artificial respiratory apparatus was stopped 5 minutes after treatment and note was taken of the cardiac frequency every 10 seconds as well as of the period of time between the stopping of the apparatus and the appearance of the flat tracing on the electrocorticogram. This period of time represents the period of survival of the animal. The value of the cardiac frequency corresponding to moment of appearance of the flat tracing was calculated by extrapolation.
The same test was performed on control animals but without administration of a compound of the invention.

SMILES: CCCC(CCC)(CCC)C(=O)[O-].[Na+] [Sodium tri-n-propylacetate, sodium tri-n-propylacetate]
- Number of animals which have lost the traction reflex ([1]; 20 mg/kg i.p., 15 min.): 1
- Number of animals which have lost the traction reflex ([1]; 20 mg/kg i.p., 30 min.): 2
- Number of animals which have lost the traction reflex ([1]; 20 mg/kg i.p., 45 min.): 0
- Number of animals which have lost the traction reflex ([1]; 50 mg/kg i.p., 15 min.): 0
- Number of animals which have lost the traction reflex ([1]; 50 mg/kg i.p., 30 min.): 1
- Number of animals which have lost the traction reflex ([1]; 50 mg/kg i.p., 45 min.): 2
- Number of animals which have lost the traction reflex ([1]; 75 mg/kg i.p., 15 min.): 3
- Number of animals which have lost the traction reflex ([1]; 75 mg/kg i.p., 30 min.): 0
- Number of animals which have lost the traction reflex ([1]; 75 mg/kg i.p., 45 min.): 1
- Number of animals which have lost the traction reflex ([1]; 100 mg/kg i.p., 15 min.): 8
- Number of animals which have lost the traction reflex ([1]; 100 mg/kg i.p., 30 min.): 1
- Number of animals which have lost the traction reflex ([1]; 100 mg/kg i.p., 45 min.): 0
- Number of animals which have lost the traction reflex ([1]; 150 mg/kg i.p., 15 min.): 10
- Number of animals which have lost the traction reflex ([1]; 150 mg/kg i.p., 30 min.): 10
- Number of animals which have lost the traction reflex ([1]; 150 mg/kg i.p., 45 min.): 9
- ED50 ([1]; 0.25 h): 80 mg/kg
- ED50 ([1]; 0.5 h): 110 mg/kg
- ED50 ([1]; 0.75 h): 130 mg/kg
- Time of maximum myorelaxant activity after administration ([1]; intraperitoneal): 15 min
- Activity index: NTD50/ED50 ([1]; rota rod NTD50 / traction ED50, 30 minutes after administration): 1.1
- TD50 at 0.5 h [2]: 120 mg/kg
- Increase of period of survival versus controls [3]: 19%
- Period of survival ([3]; controls 74.3 ± 2.3): 87.9 ± 3.7 s
- Cardiac frequency when the flat tracing appears ([3]; controls 150, calculated by extrapolation): 109
